Data reported in PubChem BioAssay AID1189 (EPA DSSTox, 2008).
Activity calls are given as the source filed them.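 How the source made its calls: active means a tumor-causing dose value with its tumor site reported for any sex and species group of a rodent or other animal cancer study; inconclusive means only studies judged inadequate by the national testing program; inactive means tested in at least one study, none positive.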

Experiment: DSSTox (CPDBAS) Carcinogenic Potency Database Summary SingleCellCall Results
Settings: animal chronic carcinogenicity bioassays, CPDB summary call
Method in brief: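 Literature-derived summary: each substance receives an overall carcinogenic/non-carcinogenic category drawn from long-term bioassays in rats, mice, hamsters, dogs or primates, using the most positive sex-species experiment and minimal evidence criteria.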

Row | Compound | outcome
1 | COC(=O)C(C)(C)Oc1ccc(-c2ccc(Cl)cc2)cc1 | active
2 | CC1SC(C)N(N=O)C(C)S1 (stereo unspecified) | active
3 | N[C@@H](CCC(=O)NNc1ccc(CO)cc1)C(=O)O | inactive
4 | CCN(CC(F)(F)F)N=O | active
5 | NNc1nc(-c2ccc([N+](=O)[O-])cc2)cs1 | active
6 | NNc1nc(-c2ccccc2)cs1 | inactive
7 | COc1cc(OC)c2c3c(c(=O)oc2c1)C(=O)CC3 | inactive; active
8 | CCn1c2ccccc2c2cc(N)ccc21 | active
9 | CC#N | inactive
10 | O=NN1CCCN(N=O)CC1 | active
11 | C=CF | active; inactive
12 | C1C2OC2C2C1C1CC2C2OC12 (stereo unspecified) | inactive
13 | CN(N=O)c1ncnc2c1ncn2[C@@H]1O[C@H](CO)[C@@H](O)[C@H]1O | active
14 | COc1cc(/C=N/NC(=O)c2ccncc2)ccc1O | active; inactive
15 | CN(C)CCN(Cc1ccco1)c1ccccn1 | inactive; active
16 | CN(C)C(=O)Cl | active
17 | O.O.O.O.O=C([O-])CC(O)(CC(=O)[O-])C(=O)[O-].[Fe+3] | inactive
18 | CN(C)C(=S)[S-].CN(C)C(=S)[S-].[Cu+2] | inactive
19 | O=c1ccc2ccccc2o1 | active; inactive
20 | Cc1nc(N)cc2[nH]c3ccccc3c12 | active
21 | OCCN(CCO)c1nc(-c2cccs2)nc2ccccc12 | inactive
22 | CC(=O)Nc1ccc2c(c1)Cc1cc(NC(C)=O)ccc1-2 | inactive
23 | Cc1ccccc1 | active

Row | Compound | outcome
24 | Nc1c(Cl)cc([N+](=O)[O-])cc1Cl | inactive
25 | Nc1cc(Cl)c(-c2cc(Cl)c(N)cc2Cl)cc1Cl | inactive
26 | N#Cc1ccc(C2CCCc3cncn32)cc1 (stereo unspecified) | inactive; active
27 | Nc1nc(=S)c2ncn([C@H]3C[C@H](O)[C@@H](CO)O3)c2[nH]1 | active
28 | COC1=CC(=O)C[C@@H](C)[C@]12Oc1c(Cl)c(OC)cc(OC)c1C2=O | active
29 | O=C(c1ccccc1)C(O)c1ccccc1 (stereo unspecified) | inactive; active
30 | CCCCCCN(N=O)C(N)=O | active; inactive
31 | [O-]/[N+](=N\O)c1ccccc1 | active; inactive
32 | O=NN1CCC[C@H]1C(=O)O | inactive
33 | C[C@@H]1C[C@H](C)CN(S(=O)(=O)c2ccc(Cl)c(C(=O)O)c2)C1 | active
34 | Cc1csc(NNC=O)n1 | active
35 | C=CCOC(=O)CC(C)C | active
36 | C=CCOc1ccccc1OCC(O)CNC(C)C (stereo unspecified) | inactive
37 | Nc1c(F)c(N)c(F)c(F)c1F | active; inactive
38 | CCN(Cc1cccc(S(=O)(=O)O)c1)c1ccc(C(=C2C=CC(=[N+](CC)Cc3cccc(S(=O)(=O)O)c3)C=C2)c2ccccc2S(=O)(=O)[O-])cc1 | inactive; active
39 | Cc1cnc2ccc3c(nc(N)n3C)c2n1 | active
40 | C[C@H]1CCCCN1N=O | active
41 | CC(C)Oc1ccccc1OC(=O)N(C)N=O | active
42 | CN(C)CCOC(c1ccccc1)c1ccccc1 | inactive
43 | CCCCCCCCCCCCN=C(N)N | inactive
44 | FC(F)OC(Cl)C(F)(F)F (stereo unspecified) | inactive
45 | N[C@@H](CCC(=O)NNc1ccc(C(=O)O)cc1)C(=O)O | active; inactive
46 | O=C/C=C/O | active

Row | Compound | outcome
47 | Cc1ccc(N=C=O)cc1N=C=O | active; inactive
48 | CCC1(CC)C(=O)N=C(O)NC1=O | active; inactive
49 | FC(F)(F)C(Cl)Cl | active
50 | OCc1ccco1 | active
51 | CCCCCN(N=O)C(=O)OCC | active
52 | NC(=O)CI | inactive; active
53 | COc1cc(O)c2c(=O)c3c(OC)cc4c(c3oc2c1OC)C1C=COC1O4 (stereo unspecified) | active
54 | CC[C@H](C)C(=O)O[C@H]1C[C@@H](C)C=C2C=C[C@H](C)[C@H](CC[C@@H]3C[C@@H](O)CC(=O)O3)[C@H]21 | active; inactive
55 | CCCCC(C)(O)C/C=C/[C@H]1[C@H](O)CC(=O)[C@@H]1CCCCCCC(=O)OC (stereo partly specified) | inactive; active
56 | S=C=Nc1ccccc1 | inactive
57 | C1COCCO1 | active; inactive
58 | C=CC(N)=O | active; inactive
59 | CC1=CC(=O)CC(C)(C)C1 | active
60 | CC(O)CN(N=O)C(=O)NCCCl (stereo unspecified) | active
61 | c1ccc2c(c1)[nH]c1cnccc12 | inactive
62 | CN1CCCC1=O | active
63 | Cc1ccc2ccccc2c1 | inactive; active
64 | CNC(=O)c1c(N(C)N=O)ncn1C | active
65 | Nc1ccc(-c2ccccc2)cc1 | active
66 | Cc1cccn2c1nc1ccc(N)nc12 | active
67 | CN(N=O)c1ccc(/C=C/c2ccnc3ccccc23)cc1 | active
68 | C/C=N/O | inactive
69 | Nc1ccc(Cl)c(N)c1 | active

Row | Compound | outcome
70 | O=c1c(CO)c/c(=N/Nc2ccc(S(=O)(=O)O)c3ccccc23)c(=O)/c1=N/Nc1ccc(S(=O)(=O)O)c2ccccc12 | inactive
71 | NC(=S)NNC=O | inactive
72 | CC(C)=CCl | active
73 | [S-]c1nc2ccccc2s1.[S-]c1nc2ccccc2s1.[Zn+2] | inactive; active
74 | O=C([O-])c1cc(N=Nc2ccc(-c3ccc(N=Nc4c(O)ccc(N=Nc5cc(S(=O)(=O)[O-])ccc5[O-])c4[O-])cc3)cc2)ccc1O.[Cu+2].[Na+].[Na+] | active; inactive
75 | Cc1cc(C)nc(-c2ccc([N+](=O)[O-])o2)n1 | active
76 | Nc1ccc(NC(=O)c2ccc(N)cc2)cc1 | inactive; active
77 | CC1CN(N=O)C(=O)NC1=O (stereo unspecified) | inactive
78 | Nc1ccc(Oc2ccc(N)cc2)cc1 | active
79 | CC(=O)OC/C=C(C)/C=C/C=C(C)/C=C/C1=C(C)CCCC1(C)C | active; inactive
80 | CCN(CC)C(=S)[S-].CCN(CC)C(=S)[S-].[Cd+2] | inactive
81 | [Se] | inactive
82 | CC(=O)O[C@@H]1[C@@H](O)C2OC3C=C(C)C(=O)C(O)[C@@]3(CO)[C@]1(C)[C@]21CO1 (stereo partly specified) | inactive
83 | C=C(C)[C@H]1Cc2c(ccc3c2O[C@@H]2COc4cc(OC)c(OC)cc4[C@@H]2C3=O)O1 | inactive; active
84 | NCCS(=O)(=O)O | inactive; active
85 | CCCc1ccc2c(c1)OCO2 | active; inactive
86 | CN(C)N=O | active
87 | CCCCN(N)CCCC | active
88 | C/C=C/C(=O)Oc1c(C(C)CCCCCC)cc([N+](=O)[O-])cc1[N+](=O)[O-] (stereo unspecified) | inactive
89 | O=C(O)C(Cl)(Cl)Cl | active
90 | CCNC(=O)N(CCO)N=O | active
91 | FC(Cl)C(F)(F)F (stereo unspecified) | inactive
92 | CCCCCCc1ccc(O)cc1O | inactive

Row | Compound | outcome
93 | CCBr | active
94 | CC1CCC(C(C)C)C(O)C1 (stereo unspecified) | inactive
95 | CCC(Cl)CCC(Cl)C(Cl)CC(Cl)C(Cl)C(Cl)CCl (stereo unspecified) | active
96 | Oc1c(Cl)cc(Cl)cc1Sc1cc(Cl)cc(Cl)c1O | inactive
97 | CN(C)c1ccc(N=Nc2ccccc2)cc1 | active
98 | CN(C)c1ccc(Cc2ccc(N(C)C)cc2)cc1 | active
99 | Cc1ccccc1[N+](=O)[O-] | active
100 | CC(O)COC(C)(C)C (stereo unspecified) | active
101 | CC(C)(CO)CCCCCCC(C)(C)CO | inactive
102 | O=NN1CC=CCO1 | active
103 | C#C[C@]1(OC(C)=O)CC[C@H]2[C@@H]3CCC4=CC(=O)CC[C@@H]4[C@H]3CC[C@@]21C | active
104 | C[C@](N)(Cc1ccc(O)c(O)c1)C(=O)O | inactive
105 | Nc1ccc2nc3ccccn3c2n1 | active; inactive
106 | OB(O)O | inactive; active
107 | CS(=O)(=O)OCCCNCCCOS(C)(=O)=O | inactive; active
108 | Nc1ccc(Sc2ccc(N)cc2)cc1 | active
109 | CC(=O)NNc1ccccc1 | active
110 | CN(C)C(=S)S[Se](SC(=S)N(C)C)(SC(=S)N(C)C)SC(=S)N(C)C | inactive
111 | CCCOC(=O)c1cc(O)c(O)c(O)c1 | inactive
112 | Cc1ccc2ncccc2c1 | inactive
113 | CCCCC(CC)COP(=O)(OCC(CC)CCCC)OCC(CC)CCCC (stereo unspecified) | active
114 | O=NN(CCO)CCO | active; inactive
115 | C/C=C(/C)C(=O)O[C@H]1CCN2CC=C(COC(=O)[C@](O)([C@H](C)OC)C(C)(C)O)[C@H]12 | active

Row | Compound | outcome
116 | O=[Se]=O | inactive
117 | CC(C)NCC(O)COc1ccc(CC(N)=O)cc1 (stereo unspecified) | inactive; active
118 | Cc1ccccc1N | active
119 | O=Nc1ccc(Nc2ccccc2)cc1 | active; inactive
120 | Nc1nc(-c2ccc([N+](=O)[O-])o2)cs1 | active
121 | O=NN(c1ccccc1)c1ccccc1 | active; inactive
122 | O=[N+]([O-])c1ccc(-c2nc(N(CCO)CCO)c3ccccc3n2)s1 | active; inactive
123 | BrCCBr | active; inactive
124 | CCCN(N=O)C(=N)N[N+](=O)[O-] | active
125 | CCSCC[C@H](N)C(=O)O | active; inactive
126 | F[B-](F)(F)F | inactive
127 | C/C1=C\C=C(\C(C)C)[C@@H](O)C/C(C)=C/CC/C(C)=C/CC1 | inactive
128 | N#[N+]c1cc(CCN)ccc1[O-] | active
129 | Clc1ccc(C(c2ccc(Cl)cc2)C(Cl)(Cl)Cl)cc1 | active
130 | Brc1cc(Br)c(-c2cc(Br)c(Br)cc2Br)cc1Br | active
131 | COP(=O)(OC)C(O)C(Cl)(Cl)Cl (stereo unspecified) | inactive
132 | Nc1ccc(S(=O)(=O)c2ccc(N)cc2)cc1 | active
133 | ClC(Cl)=C(Cl)C(Cl)=C(Cl)Cl | active
134 | CC(C(O)c1ccccc1)N(C)N=O (stereo unspecified) | active
135 | O=CCCl | active
136 | CCCCCCCCCCCC[N+](C)(C)[O-] | inactive
